This experiment relates to bioartificial rat hippocampal brain slice. Description: Evoked fEPSP field recording on bioartificial tissue scaffold with antagonist cocktail. Conditions: cocktail in ACSF: CNQX 10 microM, APV 50 microM, Bicuculline Methbromide 50 microM; 10 minute wash-in; 28 d.i.v.; drug-subtracted average fEPSP, FIG. 12. Format: cell-based. The method, then:
Dissociated hippocampal cells were seeded on open-field scaffolds and grown in an incubator as described in Example 9, to generate bioartificial open field hippocampal brain tissue “slices.” FIG. 11 is a photo micrograph of the bioartificial tissue, on its scaffold, in a conventional field recording chamber.
Bioartificial tissue scaffolds were removed from the incubator for electrophysiological testing between 14-90 days in vitro (d.i.v.). For electrophysiological field recordings, bioartificial tissue scaffolds were suspended on a nylon mesh in a small (350-400 μl) recording chamber (FIG. 11) and perfused with artificial cerebrospinal fluid (ACSF) at a rate of 2.5-3 ml/min (submerged mode). The temperature in the recording chamber was held at 30-32° C. Recordings were made using an ACSF-filled glass micropipette (2-4 MΩ) positioned as shown (FIG. 6) and connected via a head stage to the amplifier (A-M Systems model 1800). Signals were digitized at 100 kHz using a Digidata 1550 series interface (Axon instruments) running ClampEx 10.4. Synaptic responses were evoked by electrical stimulation using a bipolar tungsten electrode (tip spacing, 140 micrometers; Frederick Haer Company) and a 100 microsecond square wave test pulse was delivered at intervals of twenty seconds (FIG. 6). Stimulus-response relationship was established over the range of 0-1000 microV. […]

Consider `N[C@@H](CCCP(=O)(O)O)C(=O)O` [APV], for which the “effect on evoked fEPSP” value was “sensitivity of the bioartificial rat hippocampal brain slice”.
For the molecule `N#Cc1cc2[nH]c(=O)c(=O)[nH]c2cc1[N+](=O)[O-]` [CNQX], the “effect on evoked fEPSP” value is “sensitivity of the bioartificial rat hippocampal brain slice”.

The values are drawn from patent publication US11407977B2, “Tissue scaffolds for electrically excitable cells” (Innovative Surface Technologies, Inc., priority 2013, dated 2022).
